According to BindingDB's records for doi:10.1016/j.chembiol.2003.08.010 (Brigham and Women's Hospital, 2003):

How the values were obtained:
[1] = biological target: T1, Ubiquitin carboxyl-terminal hydrolase isozyme L1 (Mus musculus, UniProt Q9R0P9); assay: Inhibition Activity Assay; details: pH 7.6; 25 °C
T1 sequence (Q9R0P9 whole entry): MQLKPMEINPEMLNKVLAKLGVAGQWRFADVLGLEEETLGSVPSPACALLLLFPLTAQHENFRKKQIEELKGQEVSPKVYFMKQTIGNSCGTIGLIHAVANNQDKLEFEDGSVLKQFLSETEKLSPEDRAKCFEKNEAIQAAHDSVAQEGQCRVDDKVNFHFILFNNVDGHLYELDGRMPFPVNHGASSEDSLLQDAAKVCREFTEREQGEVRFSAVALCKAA
Excerpt: (§1) Inhibition activity and selectivity for UCH-L1 and UCH-L3.

[2] = biological target: T2, Ubiquitin carboxyl-terminal hydrolase isozyme L3 (Mus musculus, UniProt Q9JKB1); assay: Inhibition Activity Assay; details: pH 7.6; 25 °C
T2 sequence (Q9JKB1 whole entry): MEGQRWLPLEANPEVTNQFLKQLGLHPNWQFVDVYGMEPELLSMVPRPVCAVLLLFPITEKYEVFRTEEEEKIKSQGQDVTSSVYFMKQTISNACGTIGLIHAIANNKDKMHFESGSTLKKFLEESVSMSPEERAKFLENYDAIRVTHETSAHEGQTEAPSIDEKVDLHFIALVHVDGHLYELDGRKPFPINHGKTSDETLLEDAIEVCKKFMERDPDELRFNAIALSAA
Excerpt: as §1

Structure (SMILES): CC(C)(C)OC(=O)[C@H](Cc1ccccc1)NC(=O)c1[nH]cnc1C(=O)Nc1cccc(Cl)c1
- IC50 [1]: 17 µM

Structure (SMILES): COC(=O)[C@H]1[C@H](CCc2ccccc2)NC(=O)N(Cc2ccccc2)[C@@H]1C
- IC50 [2]: 116 µM
- IC50 [1]: 51 µM

Structure (SMILES): CN1CCN(C2Cc3ccc(Cl)cc3Sc3ccc(F)cc32)CC1 (configuration not stated)
- IC50 [1]: 321 µM

Structure (SMILES): Cc1ccccc1C(=O)Nc1scc(-c2ccc(Br)cc2)c1C(=O)O
- IC50 [2]: 32 µM
- IC50 [1]: 6 µM

Structure (SMILES): O=C1C=CC([N+](=O)[O-])=CC1/C=N/NC(=O)C(O)(c1ccccc1)c1ccccc1 (configuration not stated)
- IC50 [1]: 9.5 µM

Structure (SMILES): COc1ccc(N=Nc2cc(-c3ccccc3)ccc2O)cc1
- IC50 [1]: 12 µM

Structure (SMILES): CCCCn1c(=O)c(C(=O)NCc2ccccc2)c(O)c2ccccc21
- IC50 [1]: 6.1 µM

Structure (SMILES): Cc1ccc(C(=O)NC(=S)NNC(=O)c2cccc([N+](=O)[O-])c2)cc1
- IC50 [1]: 36 µM

Structure (SMILES): CCCOc1ccc(/C=C/c2c([N+](=O)[O-])c(=O)n(C)c(=O)n2C)cc1 [1,3-dimethyl-5-nitro-6-[(E)-2-(4-propoxyphenyl)vinyl]pyrimidine-2,4-quinone]
- IC50 [2]: 17 µM
- IC50 [1]: 0.81 µM

Structure (SMILES): COc1cccc(NC(=O)Nc2nc(SC(C)(C)C)ns2)c1 [1-(3-tert-butylsulfanyl-1,2,4-thiadiazol-5-yl)-3-(3-methoxyphenyl)urea]
- IC50 [1]: 16 µM

Structure (SMILES): CCSc1nsc(NC(=O)Nc2cccc(F)c2)n1 [1-[3-(ethylthio)-1,2,4-thiadiazol-5-yl]-3-(3-fluorophenyl)urea]
- IC50 [1]: 16 µM

Structure (SMILES): Cc1cc(Cl)c2oc(C(=O)N3CCC(O)(c4ccccc4)CC3)c(C)c2c1 [1-[(7-chloro-3,5-dimethyl-1-benzofuran-2-yl)carbonyl]-4-phenylpiperidin-4-ol]
- IC50 [2]: 25 µM
- IC50 [1]: 1.2 µM

Structure (SMILES): NC(=S)NN=Cc1ccc(C23CC4CC(CC(C4)C2)C3)cc1 [1-[[4-(1-adamantyl)phenyl]methylideneamino]thiourea]
- IC50 [1]: 52 µM

Structure (SMILES): CCCCn1c(=O)c(C(=O)NCCc2ccccc2)c(O)c2ccccc21 [1-butyl-2-oxidanyl-4-oxidanylidene-N-(2-phenylethyl)quinoline-3-carboxamide]
- IC50 [1]: 12 µM

Structure (SMILES): Cc1ccc(-c2cc(-c3ccccc3)nc(N(C)N)n2)cc1 [1-methyl-1-[4-(4-methylphenyl)-6-phenylpyrimidin-2-yl]hydrazine]
- IC50 [2]: 113 µM
- IC50 [1]: 4.1 µM

Structure (SMILES): COc1ccc2nc(C3CCCCC3)nc(C3CCCCC3)c2c1 [2,4-Dicyclohexyl-6-methoxy-quinazoline]
- IC50 [2]: 47 µM
- IC50 [1]: 126 µM

Structure (SMILES): Cc1cccc(OCC(=O)Nc2ccncc2)c1 [2-(3-methylphenoxy)-N-pyridin-4-yl-ethanamide]
- IC50 [1]: 36 µM

Structure (SMILES): CCN(CC)c1nc(Nc2ccc([N+](=O)[O-])cc2)nc(N(CC)CC)n1 [2-N,2-N,4-N,4-N-tetraethyl-6-N-(4-nitrophenyl)-1,3,5-triazine-2,4,6-triamine]
- IC50 [2]: 18 µM
- IC50 [1]: 2.9 µM

Structure (SMILES): Cc1ccc(Cn2c(C(CO)Nc3nc(-c4ccc(F)cc4)cs3)nc3ccccc32)cc1 (configuration not stated) [2-[4-(4-Fluoro-phenyl)-thiazol-2-ylamino]-2-[1-(4-methyl-benzyl)-1H-benzoimidazol-2-yl]-ethanol]
- IC50 [1]: 8.8 µM

Structure (SMILES): CCOC(=O)C1=C(C)N=c2sc(=Cc3ccc(OCC(=O)O)c(OC)c3)c(=O)n2C1c1ccc(Cl)cc1 (configuration not stated) [2-[4-[[6-carbethoxy-5-(4-chlorophenyl)-3-keto-7-methyl-5H-thiazolo[3,2-a]pyrimidin-2-ylidene]methyl]-2-methoxy-phenoxy]acetic acid]
- IC50 [1]: 43 µM

Structure (SMILES): COc1ccccc1-c1cc(-c2ccccc2)nc(SCC(=O)O)c1C#N [2-[[3-cyano-4-(2-methoxyphenyl)-6-phenyl-2-pyridinyl]thio]acetic acid]
- IC50 [2]: 23 µM
- IC50 [1]: 0.94 µM

Structure (SMILES): O=[N+]([O-])c1c(Nc2cccc(O)c2)cc(Cl)c2nonc12 [3-[(7-chloro-4-nitro-benzofurazan-5-yl)amino]phenol]
- IC50 [1]: > 100 µM

Structure (SMILES): Cc1cccc(C(=O)Nc2scc(-c3ccc(Br)cc3)c2C(=O)O)c1 [4-(4-bromophenyl)-2-[(3-methylphenyl)carbonylamino]thiophene-3-carboxylic acid]
- IC50 [1]: 6.2 µM

Structure (SMILES): O=C(Nc1scc(-c2ccc(Br)cc2)c1C(=O)O)c1ccccc1F [4-(4-bromophenyl)-2-[[(2-fluorophenyl)-oxomethyl]amino]-3-thiophenecarboxylic acid]
- IC50 [1]: 12 µM

Structure (SMILES): c1ccc(-c2nc(C3CCCCC3)c3ccccc3n2)cc1 [4-Cyclohexyl-2-phenyl-quinazoline]
- IC50 [2]: 0.6 µM
- IC50 [1]: 75 µM

Structure (SMILES): CC(=NNC(=O)c1ccc(C)cc1)c1c(C)[nH]n(-c2ccccc2)c1=O [4-Methyl-benzoic acid N'-[1-(3-methyl-5-oxo-1-phenyl-1,5-dihydro-pyrazol-4-ylidene)-ethyl]-hydrazide]
- IC50 [1]: 95 µM

Structure (SMILES): CC(C)c1ccc(C=Nn2c(-c3ccccc3)n[nH]c2=S)cc1 [4-[(4-Isopropyl-benzylidene)-amino]-5-phenyl-4H-[1,2,4]triazole-3-thiol]
- IC50 [1]: 13 µM

Structure (SMILES): Brc1cc(-c2ccccc2)nc(-c2ccccc2)n1 [4-bromo-2,6-diphenyl-pyrimidine]
- IC50 [1]: 13 µM

Structure (SMILES): O=C1C=C(N2CCCCC2)c2ccccc2C1=O [4-piperidin-1-ylnaphthalene-1,2-dione]
- IC50 [1]: 78 µM

Structure (SMILES): CC(C)=CCc1cc([C@@H]2COc3c(ccc4c3C=CC(C)(C)O4)C2)c(O)cc1O [5'-prenyl-glabridin]
- IC50 [1]: 6.1 µM

Structure (SMILES): CC1(C)CC(=O)C(C2C3=C(CC(C)(C)CC3=O)Oc3c(Br)cc(Br)cc32)C(=O)C1 (configuration not stated) [5,7-bis(bromanyl)-9-(4,4-dimethyl-2-oxidanyl-6-oxidanylidene-cyclohexen-1-yl)-3,3-dimethyl-4,9-dihydro-2H-xanthen-1-one]
- IC50 [1]: 12 µM

Structure (SMILES): Cc1nc(N=NCc2ccc3c(c2)OCO3)sc1C [(4,5-dimethylthiazol-2-yl)-(piperonylideneamino)amine]
- IC50 [1]: 5.8 µM

Structure (SMILES): COc1cccc(CN=Nc2cc(N3CCOCC3)ncn2)c1O [(6E)-2-methoxy-6-[[N'-(6-morpholinopyrimidin-4-yl)hydrazino]methylene]cyclohexa-2,4-dien-1-one]
- IC50 [1]: 6.1 µM

Structure (SMILES): CCOc1ccc(CN=Nc2cc(N3CCOCC3)nc(C)n2)c(O)c1 [(6E)-3-ethoxy-6-[[2-(2-methyl-6-morpholin-4-yl-pyrimidin-4-yl)hydrazinyl]methylidene]cyclohexa-2,4-dien-1-one]
- IC50 [1]: 19 µM

Structure (SMILES): CC(C)=CCOc1ccc([C@@H]2COc3c(ccc4c3C=CC(C)(C)O4)C2)c(O)c1 [MLS000697599]
- IC50 [1]: 8.8 µM

Structure (SMILES): O[C@@H]1CCCN2CCc3c([nH]c4ccccc34)[C@H]12 [MLS000728593]
- IC50 [1]: 3.4 µM

Structure (SMILES): Cc1ccc(OCCCCc2c(C)n[nH]c2C)cc1 [MLS001001654]
- IC50 [1]: 1.3 µM

Structure (SMILES): CC(C)NC(=S)NC(c1ccccc1)(c1ccccc1)c1ccccc1 [MLS001008525]
- IC50 [1]: 2.7 µM

Structure (SMILES): COc1ccc(CC2=CC(=O)c3ccccc3C2=O)cc1 [MLS001163415]
- IC50 [1]: 114 µM

Structure (SMILES): COc1ccc(Nc2nc(NN)nc(Nc3ccc(OC)cc3)n2)cc1 [MLS001185433]
- IC50 [1]: > 100 µM

Structure (SMILES): CC[n+]1c(/C=C/N(C)c2ccccc2)n(-c2ccccc2)c2ccc(-c3nc4ccccc4s3)cc21 [MLS001207496]
- IC50 [1]: 50 µM

Structure (SMILES): CC(C)(C)c1ccc(O)c(N=Cc2c(O)ccc3ccccc23)c1 [MLS001211069]
- IC50 [1]: 15 µM

Structure (SMILES): COc1cc(/C=C2/SC(=S)N(Cc3ccccc3)C2=O)ccc1O [MLS001211321]
- IC50 [1]: 18 µM

Structure (SMILES): O=C1C([N+](=O)[O-])=CC(Cl)=CC1/C=N/NC(=O)C(O)(c1ccccc1)c1ccccc1 (configuration not stated) [N''''-[(E)-(3-chloro-5-nitro-6-oxocyclohexa-2,4-dien-1-ylidene)methyl]-2-hydroxy-2,2-diphenylacetohydrazide]
- IC50 [1]: 16 µM

Structure (SMILES): O=C(NC12CC3CC(CC(C3)C1)C2)c1ccc([N+](=O)[O-])o1 [N-(1-adamantyl)-5-nitrofuran-2-carboxamide]
- IC50 [1]: 6.5 µM

Structure (SMILES): CC(C)=CCc1c2c(c(O)c3c(=O)c4c(oc13)-c1cc(O)c(O)cc1OC4C=C(C)C)C=CC(C)(C)O2 (configuration not stated) [SMR000470928]
- IC50 [1]: 12 µM

Structure (SMILES): C=CC(C)(C)c1c(O)c(CC=C(C)C)c(O)c2c(=O)c3ccc(O)c(O)c3oc12 [SMR000470960]
- IC50 [1]: 1.8 µM

Structure (SMILES): COc1cc(C)c(C(=O)CC(=O)c2c(C)cc(OC)cc2C)c(C)c1 [SMR000475659]
- IC50 [1]: 45 µM

Structure (SMILES): COc1cc(OC)c([C@H]2C=C(C)[C@H]3C[C@@H]2C3(C)C)c(OC)c1 [SMR000475707]
- IC50 [1]: 80 µM

Structure (SMILES): COc1ccc(-c2csc(NC(=O)c3ccc(C(C)(C)C)cc3)c2C(=O)O)cc1 [SMR000475974]
- IC50 [1]: 22 µM

Structure (SMILES): COc1cccc(C(=O)Oc2ccc(CN=Nc3ccc(C(=O)O)cc3)cc2OC)c1 [SMR000502791]
- IC50 [1]: 21 µM

Structure (SMILES): Oc1c(Br)cc(Br)cc1CNc1cccc2cccnc12 [SMR000503121]
- IC50 [1]: 14 µM

Structure (SMILES): Cc1ccc(OCCn2c(S)nc3ccccc32)c(C(C)C)c1 [SMR000515074]
- IC50 [1]: 19 µM

Structure (SMILES): Clc1cccc(Cl)c1C1Nc2cccc3cccc(c23)N1 [SMR000515760]
- IC50 [1]: 4.1 µM

Structure (SMILES): CCCc1cc(=O)n2[nH]c(C)c(-c3ccc(Cl)cc3)c2n1 [SMR000518792]
- IC50 [1]: 12 µM

Structure (SMILES): Cc1c(Cl)cccc1-c1ccc(CNCc2ccccn2)o1 [[5-(3-Chloro-2-methyl-phenyl)-furan-2-ylmethyl]-pyridin-2-ylmethyl-amine]
- IC50 [1]: > 100 µM

Structure (SMILES): CC1Oc2cc3oc4c(O)c5c(cc4c(=O)c3c(O)c2C1(C)C)C=CC(C)(C)O5 (configuration not stated) [gerontoxanthone A]
- IC50 [1]: 4.1 µM

Structure (SMILES): CC1Oc2cc3oc4c(O)c(O)ccc4c(=O)c3c(O)c2C1(C)C (configuration not stated) [toxyloxanthone C]
- IC50 [1]: 3.4 µM
